Experimental data taken from article PMC8303988, “Cholate Disrupts Regulatory Functions of Cytochrome c Oxidase” (Cells, 2021).

System: T1, cholate-CytOx; isolated cytochrome c oxidase from bovine heart
T1 construct: gene MT-CO1; with Cytochrome c oxidase subunit 1; Cytochrome c oxidase subunit 2; Cytochrome c oxidase subunit 3; Cytochrome c oxidase subunit 5A, mitochondrial; Cytochrome c oxidase subunit 5B, mitochondrial; Cytochrome c oxidase subunit 6A2, mitochondrial; Cytochrome c oxidase subunit 6B1; Cytochrome c oxidase subunit 6C; Cytochrome c oxidase subunit 7A1, mitochondrial; Cytochrome c oxidase subunit 7B, mitochondrial; Cytochrome c oxidase subunit 7C, mitochondrial; Cytochrome c oxidase subunit 8B, mitochondrial
Assay: UV/VIS absorption spectroscopy, displacement of bound cholate by ADP
Format: binding, Bos taurus
Conditions: 0 °C, pH 7.4; cholate bound during purification; nucleotide sites

## C[C@H](CCC(=O)O)[C@H]1CC[C@H]2[C@@H]3[C@H](O)C[C@@H]4C[C@H](O)CC[C@]4(C)[C@H]3C[C@H](O)[C@]12C [cholate]
  UV/VIS absorption spectroscopy, displacement of bound cholate by ADP: exchange of cholate by ADP is a very slow process with a half-time of about
